# Laboratory results: patent US12358915B2, “METTL3 inhibitory compounds” (STORM THERAPEUTICS LTD., priority 2019, dated 2025)
# Read-outs that look alike come from different tables or passages of the source.
# Biological target: T1, METTL3/14 (Homo sapiens, UniProt Q86U44)
# T1 construct: The enzyme used was full-length his-tagged METTL3; His; made in house
# Test: METTL3/14 methyltransferase assay (METTL3_14 RFMS, RapidFire mass spectrometry);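 note: recombinant His-tagged METTL3 with FLAG-tagged METTL14 from baculovirus, SAH product quantified by mass spectrometry against isotope-labelled internal standards, 60 min at room temperature, scaled between no-RNA and DMSO-only wells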
# Assay type: biochemical
# [1] = 5 nM METTL3/14, 0.2 μM RNA substrate, 0.5 μM SAM, lower limit of the assay IC50=5 nM, Compounds 63-265, read-out: METTL3_14 RFMS IC50
# [2] = 5 nM METTL3/14, 0.2 μM RNA substrate, 0.5 μM SAM, lower limit of the assay IC50=5 nM, Compounds 1-62, read-out: METTL3_14 RFMS IC50
# [3] = 5 nM METTL3/14, 0.2 μM RNA substrate, 0.5 μM SAM, lower limit of the assay IC50=5 nM, Compounds 266-351, read-out: METTL3_14 RFMS IC50
# T1 sequence (Q86U44 whole entry): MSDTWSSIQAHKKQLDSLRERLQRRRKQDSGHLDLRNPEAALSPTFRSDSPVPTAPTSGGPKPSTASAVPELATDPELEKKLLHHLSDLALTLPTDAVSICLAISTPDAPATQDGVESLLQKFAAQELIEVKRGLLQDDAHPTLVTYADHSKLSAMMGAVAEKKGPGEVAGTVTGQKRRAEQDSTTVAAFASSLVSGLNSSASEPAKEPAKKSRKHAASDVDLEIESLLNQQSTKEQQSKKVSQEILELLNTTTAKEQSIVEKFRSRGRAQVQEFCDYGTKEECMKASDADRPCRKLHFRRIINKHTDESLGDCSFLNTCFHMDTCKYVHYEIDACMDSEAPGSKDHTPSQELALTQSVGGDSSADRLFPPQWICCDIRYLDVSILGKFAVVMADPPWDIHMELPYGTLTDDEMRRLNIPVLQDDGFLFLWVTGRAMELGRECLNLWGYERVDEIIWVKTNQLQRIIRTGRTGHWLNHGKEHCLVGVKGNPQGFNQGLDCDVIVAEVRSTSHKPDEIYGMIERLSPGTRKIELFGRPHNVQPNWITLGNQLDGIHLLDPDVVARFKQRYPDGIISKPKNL
# T1 sequence (Q9HCE5 whole entry partner): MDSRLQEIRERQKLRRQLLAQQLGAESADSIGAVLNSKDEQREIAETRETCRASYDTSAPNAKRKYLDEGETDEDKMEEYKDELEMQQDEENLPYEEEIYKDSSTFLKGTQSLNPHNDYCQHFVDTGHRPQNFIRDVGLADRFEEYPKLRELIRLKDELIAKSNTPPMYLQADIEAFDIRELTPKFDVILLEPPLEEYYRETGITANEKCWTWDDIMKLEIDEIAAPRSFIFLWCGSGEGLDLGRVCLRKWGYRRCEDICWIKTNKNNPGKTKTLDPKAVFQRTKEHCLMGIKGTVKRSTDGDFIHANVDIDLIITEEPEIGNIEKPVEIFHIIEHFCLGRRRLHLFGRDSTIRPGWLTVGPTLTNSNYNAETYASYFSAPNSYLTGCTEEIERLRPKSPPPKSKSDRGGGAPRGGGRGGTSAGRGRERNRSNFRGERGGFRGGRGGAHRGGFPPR
Structure (SMILES),IC50 [1] [nM],further results
"O=C(NCc1cn2cc(CN3CCC(c4ccccc4)C3)ccc2n1)c1cc(=O)n2ccccc2n1 (stereo not shown) [Compound 97, 4-oxo-N-({6-[(3-phenylpyrrolidin-1-yl)methyl]imidazo [1,2-a]pyridin-2-yl}methyl)-4H-pyrido[1,2-a] pyrimidine-2-carboxamide]",1020,
"O=C(NCc1cn2cc(CN3C4CCC3CC4)ccc2n1)c1cc(=O)n2ccccc2n1 [Compound 169, N-{[6-({7-azabicyclo [2.2.1]heptan-7-yl}methyl)imidazo[1,2-a]pyridin-2-yl]methyl}-4-oxo-4H-pyrido[1,2-a]pyrimidine-2-carboxamide]",391,
"Cc1ccc2nc(C(CO)NC(=O)c3cccc4[nH]ncc34)cn2c1 (stereo not shown) [Compound 30, N-(2-hydroxy-1-{6-methylimidazo[1,2-a]pyridin-2-yl}ethyl)-1H-indazole-4-carboxamide]",,IC50 [2]: 8520 nM
"O=C(NCc1cn2cc(CNCc3cccc(F)c3)ccc2n1)c1cc(=O)n2ccccc2n1 [Compound 79, N-{[6-({[(3-fluorophenyl)methyl]amino}methyl)imidazo[1,2-a]pyridin-2-yl]methyl}-4-oxo-4H-pyrido [1,2-a]pyrimidine-2-carboxamide]",62.5,
"O=C(NCc1cn2cc(C3CNCCN3)ccc2n1)c1cc(=O)n2ccccc2n1 (stereo not shown) [Example 333, 4-oxo-N-[(6-piperazin-2-ylimidazo[1,2-a]pyridin-2-yl)methyl]pyrido[1,2-a]pyrimidine-2-carboxamide]",,IC50 [3]: 1230 nM
"CC(=O)N1CCN(Cc2ccc3nc(CNC(=O)c4cc(=O)n5ccccc5n4)cn3c2)CC1 [Compound 167, N-({6-[(4-acetylpiperazin-1-yl)methyl]imidazo[1,2-a]pyridin-2-yl}methyl)-4-oxo-4H-pyrido[1,2-a]pyrimidine-2-carboxamide]",8070,
"O=C(NCc1cn2cc(CNCC3CCCCO3)ccc2n1)c1cc(=O)n2ccccc2n1 (stereo not shown) [Compound 88, N-{[6-({[(oxan-2-yl)methyl]amino}methyl)imidazo[1,2-a]pyridin-2-yl]methyl}-4-oxo-4H-pyrido[1,2-a] pyrimidine-2-carboxamide]",114,
"O=C(NCc1cn2cc(CNCCc3ccccc3)ccc2n1)c1cc(=O)n2ccccc2n1 [Compound 53, 4-oxo-N-[(6-{[(2-phenylethyl)amino]methyl}imidazo[1,2-a]pyridin-2-yl)methyl]-4H-pyrido[1,2-a]pyrimidine-2-carboxamide]",,IC50 [2]: 38 nM; IC50 (read-out: IC50): 27 nM
"O=C(NCc1cn2cc(CNCCCc3ccccc3)ccc2n1)c1cc(=O)n2ccccc2n1 [Compound 55, 4-oxo-N-[(6-{[(3-phenylpropyl)amino]methyl}imidazo[1,2-a]pyridin-2-yl)methyl]-4H-pyrido[1,2-a]pyrimidine-2-carboxamide]",,IC50 [2]: 87 nM; IC50 (read-out: IC50): 66 nM
"CCC(O)CNCc1ccc2nc(CNC(=O)c3cc(=O)n4ccccc4n3)cn2c1 (stereo not shown) [Compound 289, N-[[6-[(2-hydroxputylamino)methyl]imidazo[1,2-a]pyridin-2-yl]methyl]-4-oxo-pyrido[1,2-a]pyrimidine-2-carboxamide]",,IC50 [3]: 103 nM
"N#Cc1ccc2nc(CNC(=O)c3cc(=O)n4ccccc4n3)cn2c1 [Compound 18, N-({6-cyanoimidazo[1,2-a]pyridin-2-yl}methyl)-4-oxo-4H-pyrido[1,2-a]pyrimidine-2-carboxamide]",,IC50 [2]: 1860 nM
"Cc1ccc2c(=O)cc(C(=O)NCc3cn4cc(CNCC5CCCCC5)ccc4n3)oc2c1 [Compound 181, N-[(6-{[(cyclohexylmethyl)amino]methyl}imidazo[1,2-a]pyridin-2-yl)methyl]-7-methyl-4-oxo-4H-chromene-2-carboxamide]",179,
"O=C(NCc1cn2cc(NCCc3ccccc3)ccc2n1)c1cc(=O)n2ccccc2n1 [Compound 191, 4-oxo-N-({6-[(2-phenylethyl)amino]imidazo[1,2-a]pyridin-2-yl}methyl)-4H-pyrido[1,2-a]pyrimidine-2-carboxamide]",,IC50 (read-out: METTL3_14 RFMS IC50): 4790 nM
"O=C(NCc1cn2cc(CN3CC(c4ccccn4)C3)ccc2n1)c1cc(=O)n2ccccc2n1 [Compound 134, 4-oxo-N-[(6-{[3-(pyridin-2-yl)azetidin-1-yl]methyl}imidazo[1,2-a]pyridin-2-yl)methyl]-4H-pyrido[1,2-a] pyrimidine-2-carboxamide]",440,
"O=C(NCc1cn2cc(CNC3CCOC3)ccc2n1)c1cc(=O)n2ccccc2n1 (stereo not shown) [Compound 122, 4-oxo-N-[(6-{[(oxolan-3-yl)amino]methyl}imidazo[1,2-a]pyridin-2-yl)methyl]-4H-pyrido[1,2-a] pyrimidine-2-carboxamide]",110,
"O=C(NCc1cn2cc(CNCC3CCCOC3)ccc2n1)c1cc(=O)n2ccccc2n1 (stereo not shown) [Compound 90, N-{[6-({[(oxan-3-yl)methyl]amino}methyl)imidazo [1,2-a]pyridin-2-yl]methyl}-4-oxo-4H-pyrido[1,2-a] pyrimidine-2-carboxamide]",79.2,
"O=C(NCc1cn2ccc(CNCCc3ccccc3)cc2n1)c1cc(=O)n2ccccc2n1 [Compound 243, 4-oxo-N-[(7-{[(2-phenylethyl)amino]methyl}imidazo[1,2-a]pyridin-2-yl)methyl]-4H-pyrido[1,2-a]pyrimidine-2-carboxamide]",,IC50 (read-out: METTL3_14 RFMS IC50): 1450 nM
"C=Cc1ccn2cc(CNC(=O)c3cc(=O)n4ccccc4n3)nc2c1 [Compound 60, N-({7-ethenylimidazo[1,2-a]pyridin-2-yl}methyl)-4-oxo-4H-pyrido[1,2-a]pyrimidine-2-carboxamide]",,IC50 [2]: 700 nM
"C[C@@H](NCc1ccc2nc(CNC(=O)c3cc(=O)n4ccccc4n3)cn2c1)c1ccccc1 [Compound 75, 4-oxo-N-{[6-({[(1R)-1-phenylethyl]amino}methyl)imidazo[1,2-a]pyridin-2-yl]methyl}-4H-pyrido[1,2-a]pyrimidine-2-carboxamide]",48.1,
"CC(O)c1ccc2nc(CNC(=O)c3cccc4[nH]ncc34)cn2c1 (stereo not shown) [Compound 47, N-{[6-(1-hydroxyethyl)imidazo[1,2-a]pyridin-2-yl]methyl}-1H-indazole-4-carboxamide]",,IC50 [2]: 3980 nM
"O=C(NCc1cn2cc(CN3CCC(C(F)(F)F)CC3)ccc2n1)c1cc(=O)n2ccccc2n1 [Compound 138, 4-oxo-N-[(6-{[4-(trifluoromethyl)piperidin-1-yl]methyl}imidazo [1,2-a]pyridin-2-yl)methyl]-4H-pyrido[1,2-a] pyrimidine-2-carboxamide]",31.4,
"O=C(NCc1cn2cc(Nc3cccnc3)ccc2n1)c1cccc2[nH]ncc12 [Compound 37, N-({6-[(pyridin-3-yl)amino]imidazo[1,2-a]pyridin-2-yl}methyl)-1H-indazole-4-carboxamide]",,IC50 [2]: 4740 nM
"CC(C)(C)OC(=O)N1CCCCC1CNCc1ccc2nc(CNC(=O)c3cc(=O)n4ccccc4n3)cn2c1 (stereo not shown) [Compound 102, tert-butyl 2-{[({2-[({4-oxo-4H-pyrido[1,2-a]pyrimidin-2-yl} formamido)methyl]imidazo[1,2-a]pyridin-6-yl}methyl)amino]methyl}piperidine-1-carboxylate]",429,
"O=C(NCc1cn2cc(Br)ccc2n1)c1cccc2[nH]ncc12 [Compound 3, N-({6-bromoimidazo[1,2-a]pyridin-2-yl}methyl)-1H-indazole-4-carboxamide]",,IC50 [2]: 4660 nM
"O=C(NCc1cn2cc(CNCC3CCCCC3)ccc2n1)c1cc(=O)c2cccc(Cl)c2o1 [Compound 185, 8-chloro-N-[(6-{[(cyclohexylmethyl)amino]methyl}imidazo[1,2-a]pyridin-2-yl)methyl]-4-oxo-4H-chromene-2-carboxamide]",1070,
"CC(C)(C)OC(=O)N1CCCC(CNCc2ccc3nc(CNC(=O)c4cc(=O)n5ccccc5n4)cn3c2)C1 (stereo not shown) [Compound 100, tert-butyl 3-{[({2-[({4-oxo-4H-pyrido[1,2-a]pyrimidin-2-yl}formamido)methyl]imidazo [1,2-a]pyridin-6-yl}methyl)amino]methyl}piperidine-1-carboxylate]",1380,

# More lines, main results first:
IC50 [1] [nM],Structure (SMILES),further results
168,"O=C(NCc1cn2cc(CNCc3ccc(Cl)cc3)ccc2n1)c1cc(=O)c2ccccc2o1 [Compound 220, N-{[6-({[(4-chlorophenyl)methyl]amino}methyl)imidazo[1,2-a]pyridin-2-yl]methyl}-4-oxo-4H-chromene-2-carboxamide]",
8370,"CC(C)(C)CN1CCOCC1c1ccc2nc(CNC(=O)c3cc(=O)n4ccccc4n3)cn2c1 (stereo not shown) [Example 232, N-({6-[4-(2,2-dimethylpropyl)morpholin-3-yl]imidazo[1,2-a]pyridin-2-yl}methyl)-4-oxo-4H-pyrido[1,2-a]pyrimidine-2-carboxamide]",
50.6,"CC(C)(C)CNCc1ccc2nc(CNC(=O)c3cc(=O)c4ccccc4o3)cn2c1 [Compound 265, N-[(6-{[(2,2-dimethylpropyl)amino]methyl}imidazo[1,2-a]pyridin-2-yl)methyl]-4-oxo-4H-chromene-2-carboxamide]",
132,"CC(NCC1CCCCC1)c1ccc2nc(CNC(=O)c3cc(=O)n4ccccc4n3)cn2c1 (stereo not shown) [Compound 189, N-[(6-{1-[(cyclohexyl-methyl)amino]ethyl}imidazo [1,2-a]pyridin-2-yl)methyl]-4-oxo-4H-pyrido[1,2-a]pyrimidine-2-carboxamide]",
260,"O=C(NCc1cn2cc(CNCC3CCCCN3)ccc2n1)c1cc(=O)n2ccccc2n1 (stereo not shown) [Compound 240, 4-oxo-N-{[6-({[(piperidin-2-yl)methyl]amino}methyl)imidazo[1,2-a]pyridin-2-yl]methyl}-4H-pyrido[1,2-a]pyrimidine-2-carboxamide]",
33.9,"CC1(CNCc2ccc3nc(CNC(=O)c4cc(=O)c5ccccc5o4)cn3c2)CCCCC1 [Compound 222, N-{[6-({[(1-methylcyclohexyl)methyl]amino}methyl)imidazo [1,2-a]pyridin-2-yl]methyl}-4-oxo-4H-chromene-2-carboxamide]",
